Measurements as given in the supplement of paper PMC10307832.

Key:
Experiment in all cases: relative viability (nuclei count vs DMSO), 5 days (fraction); higher = more cells survive
DM3189 + Trametinib = compound: C1CN(CCN1)C2=CC=C(C=C2)C3=CN4C(=C(C=N4)C5=CC=NC6=CC=CC=C56)N=C3 [DM3189] + CC(=O)Nc1cccc(-n2c(=O)n(C3CC3)c(=O)c3c(Nc4ccc(I)cc4F)n(C)c(=O)c(C)c32)c1 [Trametinib] (partner 0.02 µM)
Procedure, shortened: (§1)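 Relative viability divides the nuclei count in treated wells by that in vehicle wells. Lung cancer cell lines were seeded in 1536-well plates, dosed by pin tool the next day, and fixed and stained after 5 days in one step with final 0.05% Triton X-100, 1% formaldehyde and 1 ug/ml Hoechst. Dosing was a single drug or a fixed anchor-drug dose plus five library-drug doses (not always all listed) in √10 steps, and values are medians of duplicate plates imaged at 4×.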

DM3189 + Palbociclib = compound: C1CN(CCN1)C2=CC=C(C=C2)C3=CN4C(=C(C=N4)C5=CC=NC6=CC=CC=C56)N=C3 [DM3189] + CC(=O)c1c(C)c2cnc(Nc3ccc(N4CCNCC4)cn3)nc2n(C2CCCC2)c1=O [Palbociclib] (partner 0.5 µM)
Procedure, shortened: as §1

DM3189 + Tozasertib = compound: C1CN(CCN1)C2=CC=C(C=C2)C3=CN4C(=C(C=N4)C5=CC=NC6=CC=CC=C56)N=C3 [DM3189] + Cc1cc(Nc2cc(N3CCN(C)CC3)nc(Sc3ccc(NC(=O)C4CC4)cc3)n2)n[nH]1 [Tozasertib] (partner 0.1 µM)
Procedure, shortened: as §1

DM3189 + Dasatinib = compound: C1CN(CCN1)C2=CC=C(C=C2)C3=CN4C(=C(C=N4)C5=CC=NC6=CC=CC=C56)N=C3 [DM3189] + Cc1nc(Nc2ncc(C(=O)Nc3c(C)cccc3Cl)s2)cc(N2CCN(CCO)CC2)n1 [Dasatinib] (partner 0.075 µM)
Procedure, shortened: as §1

DM3189 + AZD7762 = compound: C1CN(CCN1)C2=CC=C(C=C2)C3=CN4C(=C(C=N4)C5=CC=NC6=CC=CC=C56)N=C3 [DM3189] + NC(=O)Nc1cc(-c2cccc(F)c2)sc1C(=O)N[C@H]1CCCNC1 [AZD7762] (partner 0.2 µM)
Procedure, shortened: as §1

| Cell Line | relative viability (DM3189 + Trametinib; first compound 0.08 µM) | relative viability (DM3189 + Trametinib; first compound 0.253 µM) | relative viability (DM3189 + Trametinib; first compound 0.8 µM) | relative viability (DM3189 + Trametinib; first compound 2.53 µM) | relative viability (DM3189 + Palbociclib; first compound 0.08 µM) | relative viability (DM3189 + Palbociclib; first compound 0.253 µM) | relative viability (DM3189 + Palbociclib; first compound 0.8 µM) | relative viability (DM3189 + Palbociclib; first compound 2.53 µM) | relative viability (DM3189 + Tozasertib; first compound 0.08 µM) | relative viability (DM3189 + Tozasertib; first compound 0.253 µM) | relative viability (DM3189 + Tozasertib; first compound 0.8 µM) | relative viability (DM3189 + Tozasertib; first compound 2.53 µM) | relative viability (DM3189 + Dasatinib; first compound 0.08 µM) | relative viability (DM3189 + Dasatinib; first compound 0.253 µM) | relative viability (DM3189 + Dasatinib; first compound 0.8 µM) | relative viability (DM3189 + Dasatinib; first compound 2.53 µM) | relative viability (DM3189 + AZD7762; first compound 0.08 µM) | relative viability (DM3189 + AZD7762; first compound 0.253 µM) | relative viability (DM3189 + AZD7762; first compound 0.8 µM) | relative viability (DM3189 + AZD7762; first compound 2.53 µM) |
| --- | --- | --- | --- | --- | --- | --- | --- | --- | --- | --- | --- | --- | --- | --- | --- | --- | --- | --- | --- | --- |
| HOP-62 | 0.421 | 0.509 | 0.475 | 0.51 | 0.53 | 0.453 | 0.46 | 0.402 | 0.31 | 0.347 | 0.389 | 0.356 | 0.78 | 0.65 | 0.716 | 0.68 | 0.672 | 0.646 | 0.621 | 0.596 |
| LCLC-103H | 0.748 | 0.653 | 0.685 | 0.681 | 0.536 | 0.434 | 0.45 | 0.455 | 0.502 | 0.453 | 0.461 | 0.408 | 0.607 | 0.457 | 0.393 | 0.339 | 0.909 | 0.817 | 0.764 | 0.818 |
| NCI-H1915 | 0.325 | 0.292 | 0.305 | 0.307 | 0.506 | 0.47 | 0.437 | 0.481 | 0.455 | 0.431 | 0.402 | 0.404 | 0.46 | 0.317 | 0.289 | 0.286 | 0.708 | 0.639 | 0.521 | 0.637 |
| ChaGo-K-1 | 0.937 | 0.876 | 0.919 | 0.936 | 0.947 | 0.908 | 0.914 | 0.964 | 0.235 | 0.228 | 0.222 | 0.233 | 0.734 | 0.563 | 0.561 | 0.535 | 0.919 | 0.857 | 0.605 | 0.83 |
| PC-3 [JPC-3] | 0.75 | 0.776 | 0.722 | 0.788 | 0.574 | 0.48 | 0.553 | 0.543 | 0.84 | 0.968 | 0.848 | 0.774 | 1.12 | 1.07 | 1.16 | 0.966 | 0.957 | 0.884 | 0.814 | 0.791 |
| NCI-H1437 | 0.63 | 0.577 | 0.65 | 0.696 | 0.359 | 0.364 | 0.339 | 0.388 | 0.396 | 0.369 | 0.379 | 0.397 | 0.434 | 0.395 | 0.384 | 0.385 | 1.14 | 1.15 | 0.969 | 1 |
| NCI-H1734 | 0.651 | 0.623 | 0.652 | 0.685 | 0.34 | 0.344 | 0.283 | 0.294 | 0.28 | 0.266 | 0.228 | 0.22 | 0.476 | 0.46 | 0.499 | 0.414 | 0.6 | 0.573 | 0.511 | 0.383 |
| LK-2 | 0.586 | 0.511 | 0.638 | 0.497 | 0.51 | 0.393 | 0.387 | 0.243 | 0.183 | 0.187 | 0.185 | 0.166 | 0.294 | 0.287 | 0.221 | 0.29 | 0.252 | 0.153 | 0.225 | 0.219 |
| HCC-15 | 0.447 | 0.431 | 0.406 | 0.414 | 0.832 | 0.721 | 0.675 | 0.844 | 0.246 | 0.44 | 0.35 | 0.375 | 0.632 | 0.541 | 0.492 | 0.559 | 1.19 | 1.14 | 1.08 | 1.24 |
| HCC-366 | 0.414 | 0.362 | 0.352 | 0.432 | 0.408 | 0.286 | 0.244 | 0.341 | 0.133 | 0.0982 | – | 0.0984 | 0.943 | 0.759 | – | 0.846 | 0.293 | 0.267 | 0.197 | 0.241 |
| NCI-H2405 | 0.669 | 0.615 | 0.614 | 0.579 | 0.54 | 0.55 | 0.494 | 0.453 | 0.791 | 0.7 | 0.741 | 0.692 | 0.215 | 0.204 | 0.201 | 0.214 | 0.727 | 0.665 | 0.645 | 0.704 |
| LXF-289 | 0.74 | 0.686 | 0.692 | 0.694 | 0.597 | 0.606 | 0.565 | 0.562 | 0.208 | 0.196 | 0.166 | 0.236 | 0.264 | 0.197 | 0.189 | 0.223 | 1.17 | 1.2 | 1.1 | 1.14 |
| BEN | 0.982 | 1.01 | 1.11 | 1.21 | 0.497 | 0.484 | 0.441 | 0.545 | 0.416 | 0.465 | 0.483 | 0.444 | 0.314 | 0.295 | 0.319 | 0.33 | 0.76 | 0.646 | 0.702 | 0.738 |
| NCI-H2085 | 0.521 | 0.613 | 0.598 | 0.668 | 0.47 | 0.457 | 0.468 | 0.537 | 0.903 | 0.747 | 0.898 | 0.951 | 0.28 | 0.274 | 0.318 | 0.28 | 0.994 | 1.06 | 0.965 | 1.03 |
| NCI-H727 | 0.416 | 0.433 | 0.445 | 0.47 | 0.581 | 0.581 | 0.579 | 0.608 | 0.648 | 0.568 | 0.654 | 0.578 | 0.364 | 0.336 | – | 0.299 | 0.613 | 0.602 | 0.629 | 0.526 |
